From the supplement of paper PMC7645387

How the values were obtained:
Experiment in all cases: growth inhibition relative to DMSO control (fraction); higher = stronger growth inhibition
Conditions in all cases: treatment time: 6 days
HDFB = tested on: HDFB
Experimental: (§1)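 Drug combination matrices: GSK-LSD1 (0, 1, 10, 100 nM) was combined with a second epigenetic drug (0 to 10 uM) on MCC lines PeTa and MKL-1 and on HDFB fibroblasts for 6 days, in quadruplicate. Viability was read by CellTiter-Glo 2.0. The response is the fraction of growth inhibition relative to DMSO, as input to synergyfinder Bliss analysis.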

MKL-1 = tested on: MKL-1
Experimental: as §1

PeTa = tested on: PeTa
Experimental: as §1

c1ccc([C@@H]2C[C@H]2NC2CCNCC2)cc1 [GSK-LSD1] + Cc1cc2c(cc1N1C(=O)c3cccc4c(CCCO)ccc(c34)C1=O)n(C)c(=O)n2C [BAY299]
growth inhibition
Conditions | partner concentration 0 nM | partner concentration 1 nM | partner concentration 10 nM | partner concentration 100 nM | partner concentration 1000 nM | partner concentration 10000 nM
HDFB, GSK-LSD1 concentration 0 nM | – | -0.0107 | -0.0132 | 0.0763 | 0.607 | 0.697
HDFB, GSK-LSD1 concentration 1 nM | -0.0232 | -0.0193 | 0.0121 | 0.0867 | 0.635 | 0.702
HDFB, GSK-LSD1 concentration 10 nM | 0.076 | 0.0719 | 0.0472 | 0.207 | 0.674 | 0.727
HDFB, GSK-LSD1 concentration 100 nM | 0.0758 | 0.0715 | 0.0856 | 0.201 | 0.695 | 0.713
MKL-1, GSK-LSD1 concentration 0 nM | – | 0.0343 | -0.000673 | 0.0416 | 0.844 | 0.999
MKL-1, GSK-LSD1 concentration 1 nM | 0.104 | 0.0952 | 0.0872 | 0.0914 | 0.936 | 0.999
MKL-1, GSK-LSD1 concentration 10 nM | 0.516 | 0.425 | 0.457 | 0.475 | 0.972 | 1
MKL-1, GSK-LSD1 concentration 100 nM | 0.753 | 0.738 | 0.69 | 0.722 | 0.981 | 1
PeTa, GSK-LSD1 concentration 0 nM | – | -0.0148 | -0.062 | 0.00688 | 0.806 | 0.998
PeTa, GSK-LSD1 concentration 1 nM | -0.0592 | -0.0708 | -0.0758 | 0.0174 | 0.764 | 0.997
PeTa, GSK-LSD1 concentration 10 nM | 0.258 | 0.223 | 0.194 | 0.304 | 0.836 | 0.999
PeTa, GSK-LSD1 concentration 100 nM | 0.749 | 0.743 | 0.723 | 0.736 | 0.989 | 0.999

c1ccc([C@@H]2C[C@H]2NC2CCNCC2)cc1 [GSK-LSD1] + Cc1sc2c(c1C)C(c1ccc(Cl)cc1)=N[C@@H](CC(=O)OC(C)(C)C)c1nnc(C)n1-2 [(+)-JQ1]
growth inhibition
Conditions | partner concentration 0 nM | partner concentration 1 nM | partner concentration 10 nM | partner concentration 100 nM | partner concentration 1000 nM | partner concentration 10000 nM
HDFB, GSK-LSD1 concentration 0 nM | – | -0.0405 | -0.0664 | 0.475 | 0.743 | 0.784
HDFB, GSK-LSD1 concentration 1 nM | 0.0649 | 0.0389 | 0.0119 | 0.469 | 0.75 | 0.796
HDFB, GSK-LSD1 concentration 10 nM | 0.0598 | 0.0402 | 0.0248 | 0.531 | 0.761 | 0.792
HDFB, GSK-LSD1 concentration 100 nM | 0.0941 | 0.0548 | 0.115 | 0.607 | 0.773 | 0.817
MKL-1, GSK-LSD1 concentration 0 nM | – | -0.032 | -0.0639 | 0.818 | 0.994 | 0.997
MKL-1, GSK-LSD1 concentration 1 nM | 0.00341 | -0.0162 | -0.0305 | 0.799 | 0.994 | 0.998
MKL-1, GSK-LSD1 concentration 10 nM | 0.349 | 0.33 | 0.364 | 0.849 | 0.999 | 1
MKL-1, GSK-LSD1 concentration 100 nM | 0.792 | 0.766 | 0.766 | 0.917 | 0.999 | 1
PeTa, GSK-LSD1 concentration 0 nM | – | -0.0721 | -0.114 | 0.804 | 0.95 | 0.976
PeTa, GSK-LSD1 concentration 1 nM | -0.00975 | -0.0422 | -0.106 | 0.67 | 0.945 | 0.968
PeTa, GSK-LSD1 concentration 10 nM | 0.536 | 0.522 | 0.489 | 0.848 | 0.975 | 0.995
PeTa, GSK-LSD1 concentration 100 nM | 0.819 | 0.765 | 0.749 | 0.925 | 0.995 | 0.998

c1ccc([C@@H]2C[C@H]2NC2CCNCC2)cc1 [GSK-LSD1] + Nc1ccccc1NC(=O)c1ccc(CNC(=O)OCc2cccnc2)cc1 [Entinostat]
growth inhibition
Conditions | partner concentration 0 nM | partner concentration 1 nM | partner concentration 10 nM | partner concentration 100 nM | partner concentration 1000 nM | partner concentration 10000 nM
HDFB, GSK-LSD1 concentration 0 nM | – | 0.0329 | 0.154 | 0.451 | 0.823 | 0.933
HDFB, GSK-LSD1 concentration 1 nM | 0.0914 | 0.124 | 0.111 | 0.467 | 0.822 | 0.944
HDFB, GSK-LSD1 concentration 10 nM | 0.24 | 0.233 | 0.246 | 0.421 | 0.81 | 0.947
HDFB, GSK-LSD1 concentration 100 nM | 0.259 | 0.26 | 0.254 | 0.473 | 0.798 | 0.949
MKL-1, GSK-LSD1 concentration 0 nM | – | 0.0232 | 0.092 | 0.981 | 1 | 1
MKL-1, GSK-LSD1 concentration 1 nM | 0.121 | 0.169 | 0.164 | 0.956 | 1 | 1
MKL-1, GSK-LSD1 concentration 10 nM | 0.421 | 0.48 | 0.441 | 0.961 | 1 | 1
MKL-1, GSK-LSD1 concentration 100 nM | 0.761 | 0.745 | 0.649 | 0.958 | 1 | 1
PeTa, GSK-LSD1 concentration 0 nM | – | -0.000953 | 0.132 | 0.963 | 1 | 1
PeTa, GSK-LSD1 concentration 1 nM | 0.0344 | 0.0611 | 0.145 | 0.975 | 1 | 1
PeTa, GSK-LSD1 concentration 10 nM | 0.459 | 0.465 | 0.561 | 0.998 | 1 | 1
PeTa, GSK-LSD1 concentration 100 nM | 0.787 | 0.776 | 0.761 | 0.974 | 1 | 1

c1ccc([C@@H]2C[C@H]2NC2CCNCC2)cc1 [GSK-LSD1] + O=C(NC[C@H](O)CN1CCc2ccccc2C1)c1ccnc(NC2CCC2)c1 [GSK591]
growth inhibition
Conditions | partner concentration 0 nM | partner concentration 1 nM | partner concentration 10 nM | partner concentration 100 nM | partner concentration 1000 nM | partner concentration 10000 nM
HDFB, GSK-LSD1 concentration 0 nM | – | -0.0108 | 0.034 | 0.242 | 0.285 | 0.348
HDFB, GSK-LSD1 concentration 1 nM | -0.00486 | 0.0263 | 0.00718 | 0.199 | 0.324 | 0.372
HDFB, GSK-LSD1 concentration 10 nM | 0.0391 | 0.0408 | 0.0239 | 0.215 | 0.342 | 0.42
HDFB, GSK-LSD1 concentration 100 nM | 0.0873 | 0.0906 | 0.093 | 0.285 | 0.355 | 0.44
MKL-1, GSK-LSD1 concentration 0 nM | – | 0.00697 | 0.0188 | 0.133 | 0.269 | 0.324
MKL-1, GSK-LSD1 concentration 1 nM | 0.144 | 0.148 | 0.163 | 0.253 | 0.423 | 0.432
MKL-1, GSK-LSD1 concentration 10 nM | 0.46 | 0.501 | 0.536 | 0.626 | 0.773 | 0.789
MKL-1, GSK-LSD1 concentration 100 nM | 0.733 | 0.769 | 0.754 | 0.771 | 0.894 | 0.849
PeTa, GSK-LSD1 concentration 0 nM | – | -0.0144 | -0.0251 | 0.0642 | 0.125 | 0.21
PeTa, GSK-LSD1 concentration 1 nM | 0.11 | 0.135 | 0.102 | 0.201 | 0.287 | 0.302
PeTa, GSK-LSD1 concentration 10 nM | 0.615 | 0.624 | 0.611 | 0.64 | 0.731 | 0.679
PeTa, GSK-LSD1 concentration 100 nM | 0.761 | 0.746 | 0.73 | 0.779 | 0.866 | 0.797
